Source: patent US20260356879A1, “CELASTROL DERIVATIVES” (Celloram Inc., priority 2022, published 2026)
“Also recorded” adds a separate entry of the source. Like-named read-outs stand apart in the source and are kept apart here.

How the values were obtained:
NLRP3 inflammasome [1] = assay: IL-1β secretion in BMDMs, LPS + Nigericin; assay type: cell-based, mouse; conditions: FIG. 5A; for inhibition of IL-1β secretion: LPS + Nigericin
Experimental: This example illustrates a comparative study of CLM-022 and MCC950 in inhibiting NLRP3 inflammasome activity in mouse and human macrophages.
Bone marrow-derived macrophages (BMDMs) were treated with LPS (100 ng/ml) for 3 hours to induce the expression of inflammatory genes, including TNF-α, NLRP3, and pro-IL-1β. Subsequently, the BMDMs were treated with CLM-022 or MCC950 in a dose range of 0-10 μM for 30 minutes. Then, to fully activate NLRP3-dependent inflammasome activity and cytokine secretion, Nigericin (10 μM) was added to the BMDMs for an additional 30 minutes.

NF-kB = NF-kB luciferase reporter assay (HepG2 NF-kB-Luc reporter cells, IL-1β stimulated); assay type: cell-based, human; conditions: for IC50: Homo sapiens
Experimental: HepG2 NF-kB-Luc reporter cells stimulated with IL-1β (20 ng/ml) and the relative NF-kB luciferase activity (RLU) was determined for each of celastrol (compound 1) and each of the exemplary derivative compounds at the following eight point concentrations: 10 μM, 5 μM, 2.5 μM, 1.25 μM, 0.63 μM, 0.31 μM, 0.16 μM, 0.016 μM, and 0 μM). Assay values were plotted (not shown) and IC50 inhibitory concentrations were calculated after normalization using Prizm 9.0 software.
This example illustrates a study of the anti-inflammatory potential of an exemplary celastrol derivative of the present disclosure (compound 22) using an NF-κB luciferase promoter reporter gene assay in the human liver cancer cell line, HepG2.
NF-kB luciferase reporter assay: The celastrol derivative, compound 22 (prepared as described in Example 13) and the parent molecule, compound 1 (celastrol), were freshly dissolved in DMSO. HepG2 NF-κB reporter cells were seeded (2.5×10^4/well) in 96-well plate and then pre-treated with either compound 22 or compound 1 at the 8-point concentrations of 10, 5, 2.5, 1.25, 0.63, 0.31, 0.16, 0.016, or 0 μM, respectively, and the NF-κB promoter was activated by adding IL-1β (20 ng/ml) to the cells. After 18 hours, the cells were harvested by adding the 1× passive cell lysis buffer (Promega) and followed by measurement of the relative NF-kB luciferase activity (RLU) using GloMax discover microplate reader (Promega). Inhibitory concentrations (IC50) after normalization using Prizm 9.0 software.

NLRP3 inflammasome [2] = assay: NLRP3 inflammasome assay in BMDCs: ASC complex formation (western blot); assay type: cell-based
Experimental: FIG. 2A depicts western blot images showing the relative NLRP3 inflammasome activity of the compounds 22 (CLM-022) and 1 (CLM-001) by detecting the level of cellular ASC complex and the mature form of IL-1β (15 kDa) in a conditioned media of BMDCs treated with LPS (100 ng/ml) for 3 hours and then the compound at 50 nM, 100 nM, and 500 nM concentration for 30 min, followed by ATP or Nigericin. ASC monomer and β-Actin proteins were used as controls. FIG. 2B depict plots of results showing secreted IL-1β levels measured by ELISA using conditioned media of BMDC treated with the compound 22 or compound 1 at 63 nM, 125 nM, 250 nM, and 500 nM, under NLRP3 inflammasome activation induced either by LPS+ATP or LPS+Nigericin. FIG. 2C depict plots of results showing secreted TNF-α levels measured by ELISA using conditioned media of BMDC treated with the compound 22 or compound 1 at 63 nM, 125 nM, 250 nM, and 500 nM, under NLRP3 inflammasome activation induced either by LPS+ATP or LPS+Nigericin. […]
1. […] After 30 minutes Nigericin (10 μM) or ATP (5 mM) was added (Signal 2) and the level of NLRP3-dependent inflammasome activity was determined by western blotting the treated cells with ASC complex (>48 kDa). […]

TNF-α secretion = assay: Secreted TNF-α in conditioned media of BMDC (ELISA), LPS+ATP or LPS+Nigericin; assay type: cell-based; conditions: 63-500 nM, FIG. 2C
Experimental: FIG. 2A depicts western blot images showing the relative NLRP3 inflammasome activity of the compounds 22 (CLM-022) and 1 (CLM-001) by detecting the level of cellular ASC complex and the mature form of IL-1β (15 kDa) in a conditioned media of BMDCs treated with LPS (100 ng/ml) for 3 hours and then the compound at 50 nM, 100 nM, and 500 nM concentration for 30 min, followed by ATP or Nigericin. ASC monomer and β-Actin proteins were used as controls. FIG. 2B depict plots of results showing secreted IL-1β levels measured by ELISA using conditioned media of BMDC treated with the compound 22 or compound 1 at 63 nM, 125 nM, 250 nM, and 500 nM, under NLRP3 inflammasome activation induced either by LPS+ATP or LPS+Nigericin. FIG. 2C depict plots of results showing secreted TNF-α levels measured by ELISA using conditioned media of BMDC treated with the compound 22 or compound 1 at 63 nM, 125 nM, 250 nM, and 500 nM, under NLRP3 inflammasome activation induced either by LPS+ATP or LPS+Nigericin.
3. The secreted form of TNF-α, a NLRP3 inflammasome independent cytokine, induced by LPS+ATP or LPS+Nigericin were measured by ELISA assay using the conditioned media of BMDC treated with compound 1 (CLM-1) or compound 22 (CLM-022) at concentrations of 63, 125, 250, 500 nM under NLRP3 inflammasome activation induced either by LPS+ATP or LPS+Nigericin.

SMILES: CC1=C(O)C(=O)C=C2C1=CC=C1[C@@]2(C)CC[C@@]2(C)[C@@H]3C[C@](C)(N(C)C(=O)C(=O)N(C)C)CC[C@]3(C)CC[C@]12C [Compound 22, N′-[(2R,4aS,6aR,6aS,14aS,14bR)-10-hydroxy-2,4a,6a,6a,9,14a-hexamethyl-11-oxo-1,3,4,5,6,13,14,14b-octahydropicen-2-yl]-N,N,N′-trimethyl-oxamide]
- inhibition of IL-1β secretion (NLRP3 inflammasome [1]): outperforms the benchmark inflammasome inhibitor compound, MCC950, in inhibiting IL-1β secretion (but not TNF-α secretion)
- inhibition of IL-1β secretion (NLRP3 inflammasome [1]; listed as CLM-022): significant inhibition of IL-1β secretion
- IC50 (NLRP3 inflammasome [1]; Mus musculus, BMDM, LPS (100 ng/ml) + Nigericin (10 μM), 0-10 μM, read-out: IC50 for inhibition of IL-1β secretion (normalized)): 0.009 µM
- IC50 (NF-kB; HepG2, IL-1β (20 ng/ml), 18 hours, normalized, Example 14, FIG. 1B, read-out: IC50 for NF-κB promoter activity): 0.268 µM
- IC50 (NF-kB; HepG2 NF-kB-Luc reporter cells, IL-1β (20 ng/ml), Example 13, read-out: NF-kB IC50): 0.268 µM
- inhibition of NF-kB inflammatory signaling (NF-kB; IL-1β-induced, HepG2, FIG. 1): robust inhibitory potential for IL-1β-induced NF-kB inflammatory signaling pathway superior to celastrol (compound 1) at low concentrations; also recorded: robustly inhibits NF-κB inflammatory signaling
- % IC50 relative to Celastrol (NF-kB; relative to celastrol (compound 1)): 51%
- IC50 lower than that of compound 1 by (NF-kB; vs compound 1 (IC50=528 nM), Example 14): 50%
- ASC complex formation (NLRP3 inflammasome [2]; BMDCs, 50, 100, 500 nM, LPS then ATP or Nigericin, FIG. 2A): suppressed ASC complex formation more strongly than compound 1
- NLRP3 inflammasome activity (NLRP3 inflammasome [2]; BMDCs, compared with compound 1): robust inhibitory function on NLRP3 inflammasome activity that was better than that observed for the parental molecule celastrol (compound 1)
- suppression of TNF-α secretion (TNF-α secretion): no significant suppressive effect on TNF-α inflammatory cytokine secretion
